From ChEMBL document CHEMBL3585250, “New pyrazolo[4,3-e][1,2,4]triazine sulfonamides as carbonic anhydrase inhibitors” (Bioorg Med Chem, 2015)

Columns and labels:
[1] = test system: MCF7; assay: Cytotoxic activity against human MCF7 cells assessed as reduction in cell viability incubated for 24 hrs by MTT assay; assay type: functional, cell-based; details: MCF7, 24 h
[2] = test system: MDA-MB-231; assay: Cytotoxic activity against human MDA-MB-231 cells assessed as reduction in cell viability incubated for 24 hrs by MTT assay; assay type: functional, cell-based; details: MDA-MB-231, 24 h
[3] = test system: MCF7; assay: Inhibition of DNA synthesis in human MCF7 cells assessed as reduction in [3H]-thymidine incorporation incubated for 24 hrs by liquid scintillation counting method; assay type: functional, cell-based
[4] = test system: MDA-MB-231; assay: Inhibition of DNA synthesis in human MDA-MB-231 cells assessed as reduction in [3H]-thymidine incorporation incubated for 24 hrs by liquid scintillation counting method; assay type: functional, cell-based
[5] = biological target: Carbonic anhydrase 1 (Homo sapiens, UniProt P00915); assay: Inhibition of human carbonic anhydrase-1 pre-incubated for 15 mins by stopped-flow CO2 hydration assay based Lineweaver-Burk plot method
[6] = biological target: Carbonic anhydrase 2 (Homo sapiens, UniProt P00918); assay: Inhibition of human carbonic anhydrase-2 pre-incubated for 15 mins by stopped-flow CO2 hydration assay based Lineweaver-Burk plot method
[7] = biological target: Carbonic anhydrase 9 (Homo sapiens, UniProt Q16790); assay: Inhibition of human carbonic anhydrase-9 pre-incubated for 15 mins by stopped-flow CO2 hydration assay based Lineweaver-Burk plot method
[8] = biological target: Carbonic anhydrase 12 (Homo sapiens, UniProt O43570); assay: Inhibition of human carbonic anhydrase-12 pre-incubated for 15 mins by stopped-flow CO2 hydration assay based Lineweaver-Burk plot method
Sequence of Carbonic anhydrase 12 (O43570 whole entry): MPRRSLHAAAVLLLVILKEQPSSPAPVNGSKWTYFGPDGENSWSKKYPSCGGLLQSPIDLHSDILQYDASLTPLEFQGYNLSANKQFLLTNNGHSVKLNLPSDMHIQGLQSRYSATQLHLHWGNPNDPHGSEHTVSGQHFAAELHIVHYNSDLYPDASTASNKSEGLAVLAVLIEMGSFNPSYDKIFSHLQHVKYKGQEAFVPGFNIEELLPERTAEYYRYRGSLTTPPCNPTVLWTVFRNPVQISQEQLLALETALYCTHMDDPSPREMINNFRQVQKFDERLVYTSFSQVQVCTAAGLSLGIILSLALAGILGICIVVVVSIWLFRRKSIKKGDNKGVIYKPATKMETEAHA

Sequence of Carbonic anhydrase 1 (P00915 whole entry): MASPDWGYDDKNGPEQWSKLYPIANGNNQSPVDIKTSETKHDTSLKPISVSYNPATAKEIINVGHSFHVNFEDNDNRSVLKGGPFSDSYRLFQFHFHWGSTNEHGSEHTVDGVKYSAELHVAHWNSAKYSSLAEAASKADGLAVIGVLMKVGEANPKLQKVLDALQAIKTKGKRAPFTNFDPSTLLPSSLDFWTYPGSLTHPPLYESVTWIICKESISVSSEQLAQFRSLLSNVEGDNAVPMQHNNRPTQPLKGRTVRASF

Structure (SMILES) | IC50 [3] | IC50 [4] | Ki [5] | Ki [6] | Ki [7] | Ki [8] | IC50 [1] | IC50 [2]
CCOc1ccc(S(=O)(=O)N2CCN(C)CC2)cc1-c1nnc2c(n1)c(C)nn2-c1ccc(S(=O)(=O)N2CCN(C)CC2)cc1 | > 200000 nM | > 200000 nM | 467 nM | > 50000 nM | 29.6 nM | 536 nM | > 200000 nM | > 200000 nM
CCOc1ccc(S(=O)(=O)N2CCN(C)CC2)cc1-c1nnc2c(n1)c(C)nn2-c1ccc(C)cc1 |  |  | 330 nM | > 50000 nM | 25.4 nM | 78.1 nM |  | 
CCOc1ccc(S(=O)(=O)N2CCN(C)CC2)cc1-c1nnc2c(n1)c(C)nn2-c1ccc(S(=O)(=O)N2CCN(C)CC2)c(Cl)c1 |  |  | 571 nM | > 50000 nM | 417 nM | 79.4 nM |  | 
CCOc1ccc(S(=O)(=O)N2CCN(C)CC2)cc1-c1nnc2c(n1)c(C)nn2-c1ccc(Cl)cc1 | > 200000 nM | > 200000 nM | 854 nM | > 50000 nM | 403 nM | 81.5 nM | > 200000 nM | > 200000 nM
CCOc1ccc(S(=O)(=O)N2CCNCC2)cc1-c1nnc2c(n1)c(C)nn2-c1ccc(Cl)cc1 |  |  | 4220 nM | > 50000 nM |  | 93.1 nM |  | 

Further lines, with some results ahead:

IC50 [3] | IC50 [4] | Ki [5] | Ki [6] | Ki [7] | Ki [8] | Structure (SMILES) | IC50 [1] | IC50 [2]
 |  | 4490 nM | 7070 nM |  | 77.5 nM | CCOc1ccc(S(N)(=O)=O)cc1-c1nnc2c(n1)c(C)nn2-c1ccc(C)cc1 |  | 
 |  | 605 nM | > 50000 nM | 24.5 nM | 91.5 nM | CCOc1ccc(S(=O)(=O)NCCO)cc1-c1nnc2c(n1)c(C)nn2-c1ccc(C)cc1 |  | 
> 200000 nM | > 200000 nM | 810 nM | > 50000 nM | 13.8 nM | 82.8 nM | CCOc1ccc(S(=O)(=O)NC[C@H](C)O)cc1-c1nnc2c(n1)c(C)nn2-c1ccc(C)cc1 | > 200000 nM | > 200000 nM
> 200000 nM | > 200000 nM | 798 nM | > 50000 nM | 35.6 nM | 77.8 nM | CCOc1ccc(S(=O)(=O)NC[C@@H](C)O)cc1-c1nnc2c(n1)c(C)nn2-c1ccc(C)cc1 | > 200000 nM | > 200000 nM
> 200000 nM | > 200000 nM | 3440 nM | > 50000 nM | 27.7 nM | 77.6 nM | CCOc1ccc(S(=O)(=O)N[C@@H](C)CC)cc1-c1nnc2c(n1)c(C)nn2-c1ccc(C)cc1 | > 200000 nM | > 200000 nM
> 200000 nM | > 200000 nM | 3720 nM | > 50000 nM | 26.6 nM | 70.3 nM | CCOc1ccc(S(=O)(=O)N[C@H](C)CC)cc1-c1nnc2c(n1)c(C)nn2-c1ccc(C)cc1 | > 200000 nM | > 200000 nM
